Type in all cases: cell-based, human
Data set [1] concerns JEG-3 cells. In words: CellTiter-Glo luminescent cell viability assay (HTTS). As to conditions: for EC50: four-parameter fit, estimates meeting inclusion criteria; for cell viability relative to vehicle control (rough binning): after 24 h, in at least one concentration. Summed up:
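JEG-3 cells (2,500/well) adhered overnight, then exposed 24 h to PFAS (methanol stocks; vehicle 2.5% methanol, top concentration 500 µM). Viability read by CellTiter-Glo ATP luminescence in the same wells as mitochondrial membrane potential; wells with 0 h confluence <20% or >80% excluded.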

Data set [2] relates to JEG-3 cells. In words: Mitochondrial membrane potential, JC-10 assay (HTTS). The note with it: for minimal effective concentration: read-out: MMP ↓, lowest concentration at which the mean response value exceeded the mean control value ± 2*SD (rough binning); for MMP relative to vehicle control (rough binning): after 24 h, in at least one concentration. Summed up: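 JEG-3 cells seeded at 2,500 per well were exposed to PFAS for 24 h at 37 °C, with 2.5% methanol vehicle. After a PBS wash, 20 μM JC-10 was added for 1 h at 37 °C. Membrane potential was taken as the green (490/525 nm) to red (540/590 nm) fluorescence ratio.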

Data set [3] deals with JEG-3 cells. Description: Proliferation, change in confluence 0-24 h (IncuCyte Zoom, HTTS). The note with it: for minimal effective concentration: read-out: Prolif ↓, lowest concentration at which the mean response value exceeded the mean control value ± 2*SD (rough binning); for cellular proliferation relative to vehicle control (rough binning): after 24 h, in at least one concentration. Summed up:
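Confluence measured by automated image masking at 0 h and 24 h after dosing; proliferation = 24 h minus baseline confluence. JEG-3 seeded at 2,500 cells/well, ~30–50% baseline confluence, exposed 24 h to PFAS up to 500 µM in medium with 2.5% methanol vehicle; 37°C, 5% CO2.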

The subject of data set [4] is JEG-3 cells. Description: Phase contrast live cell images, cell death (positive control). As to conditions: 24 h. As to the method: A total of 42 perfluoroalkyl substances (PFAS) were evaluated (Supplementary Table S1 contains source and purity). PFAS stock solutions were maintained in 100% methanol as previous work has shown certain PFAS degrade when stored in dimethyl sulfoxide (DMSO; [Gaballah et al., 2020]). […] The vehicle control group consisted of 97.5% media + 2.5% methanol to match the concentration of methanol in the media at the highest PFAS concentration tested (500 µM). Menadione (50–500 µM) was used as a positive control for cytotoxicity assessment. PFAS were de-identified and assigned random numbers to eliminate bias. Chemical exposure plate maps were designed so that all experimental conditions were tested in at least technical duplicates per plate. The outer edges of each plate received media alone and were excluded from all analyses to avoid edge effects. Each plate map included 14 technical replicates of the vehicle control group and 14 technical replicates of media only. Biological replicates were defined as separate 384 well plates tested on separate days using different cell passages. The experimental workflow is depicted in Supplementary Figure S1.
JEG-3 cells were counted using a Z2 Coulter Particle Counter (Beckman Coulter, CA, United States) and seeded at a density of 2,500 cells per well in black-walled, clear bottom 384 well plates (Corning, #3764) and allowed to adhere overnight. Approximately 24 h later, 384 well plates were imaged using an IncuCyte Zoom live cell imager (Essen BioScience Inc., MI, United States) to obtain baseline cellular confluence measurements prior to chemical dosing (0 h). Media was removed from wells and replaced with fresh media containing chemical treatments (exposure media) using a Viaflo liquid handling device (Integra Biosciences, NH, United States). Within 30 min of exposure media application, plates were again imaged for cellular confluence using the IncuCyte Zoom. Plates were incubated with exposure media for 24 h and then imaged again using the IncuCyte Zoom (24 h).

The subject of data set [5] is JEG-3 cells. In words: Scratch wound migration assay. As to conditions: after 24 h of exposure, 25-200 µM. As to the method:
JEG-3 cells were cultured as described in Cell Culture section, and six PFAS were evaluated across an 8-point linear concentration curve ranging from 25 to 200 µM (25 µM steps): PFOA (335-67-1), GenX (62037-80-3), PFOS (1763-23-1), perfluorooctanesulfonamide (PFOSA, 754-91-6), perfluorooctanamide (PFOAA, 423-54-1), and perfluorononanoic acid (PFNA, 375-95-1). The vehicle control group consisted of 98% media + 2% methanol to match the concentration of methanol in the media at the highest PFAS concentration tested (200 µM). Cadmium chloride (25 µM) was used as a positive control for cytotoxicity ([Brooks and Fry, 2017]). Chemical exposure plate maps were designed so that all experimental conditions were tested in at least technical duplicates per plate. The outer edges of each plate received media alone and were excluded from all analyses to avoid edge effects. JEG-3 cells were counted and seeded at a density of 80,000 cells per well in black-walled, clear bottom 96-well plates (Corning #CLS3603, Millipore Sigma) and allowed to adhere and grow for 36 h. After approximately 36 h, 96-well plates were imaged on the IncuCyte Zoom to obtain cellular confluence measurements prior to chemical dosing (0 h). Media was then removed from wells and replaced with fresh serum-free media containing chemical treatments (serum-free exposure media) using the Viaflo liquid handling device. After 1 h of treatment with serum-free exposure media, plates were again imaged for cellular confluence using the IncuCyte Zoom. Serum-free exposure media was then removed from wells and wells were scratched by dragging a 200 µl pipette tip from top to bottom of each well, changing tips every well. Fresh media containing serum and chemical treatments (exposure media) was added to plates using a liquid handling device and allowed to grow for 72 h, with imaging via the IncuCyte Zoom every 6 h.
Plate well bottom images were evaluated using automated cell masking as described in Proliferation section. Cell migration was calculated as the change in cellular confluence from the baseline measurement obtained immediately post-scratch to each subsequent time point (24, 48, and 72 h, post-scratch).
Raw migration assay data exported from IncuCyte software were analyzed using GraphPad Prism 8.0 (GraphPad Software, San Diego, CA)). Prior to analysis, a minimum starting confluence value of 70% was set to ensure comparisons between samples were not skewed. Images with a starting confluence of less than 70% were excluded from analysis. Statistical analysis was performed using multiple unpaired t-tests to compare treated groups to the vehicle control followed by post hoc correction for multiple tests using the Bonferroni-Dunn method. Concentration-response analysis to determine migration assay EC50s was attempted but was not able to be modeled due to the non-linear nature of the concentration-response relationship for this endpoint.

[6] abbreviates: Homo sapiens, JEG-3, 24 h, read-out: Proliferation EC50 ± SD, JEG-3 cells, 24 h exposure, four-parameter fit, estimates meeting inclusion criteria.
Where [7] appears, read: Homo sapiens, JEG-3, 24 h, read-out: MMP EC50 ± SD, JEG-3 cells, 24 h exposure, four-parameter fit, estimates meeting inclusion criteria.
Setting [8] is: Homo sapiens, JEG-3, read-out: Proliferation EC50 ± SD (raw values), JEG-3 cells, raw model output including fits that did not meet inclusion criteria.

“Also recorded” adds a separate entry of the source.

As to `CC1=CC(=O)c2ccccc2C1=O` [Menadione, reference compound], the EC50 in the data set on JEG-3 cells [1] (Homo sapiens, JEG-3, 24 h, read-out: Viability EC50 ± SD, JEG-3 cells, 24 h exposure) was 206 ± 47.1 µM; with JEG-3 cells [3] (setting [6]) it was 157 ± 21.4 µM. Moreover, the “cell viability relative to vehicle control (rough binning)” value in the data set on JEG-3 cells [1] was “reduced cell viability”. Further, the minimal effective concentration in the data set on JEG-3 cells [2] (Homo sapiens, JEG-3, 24 h) was found to be 300 µM; in the data set with JEG-3 cells [3] (Homo sapiens, JEG-3, 24 h), 150 µM. Moreover, the “MMP relative to vehicle control (rough binning)” value (from here on “MMP relative to vehicle control”) in the data set with JEG-3 cells [2] is on record as “reduced MMP”. Further, the “cellular proliferation relative to vehicle control (rough binning)” value in the data set on JEG-3 cells [3] is listed as “reduced proliferation”. For the same molecule, the “cytotoxicity / cell death” value in the data set on JEG-3 cells [4] (100 µM) was “minimal cell death; also recorded: not cytotoxic”. For the same molecule, the cell death entry in the data set with JEG-3 cells [4] (150 µM) is “Complete cell death”. Also, the “concentration that promoted cell death” value in the data set on JEG-3 cells [4] was no less than 150 µM.
For `O=C(O)C(F)(F)C(F)(F)C(F)(F)C(F)(F)C(F)(F)F` [Perfluorohexanoic acid], the “Viability ↑, lowest concentration at which the mean response value exceeded the mean control value ± 2*SD (rough binning)” value in the data set on JEG-3 cells [1] (JEG-3 cells, 24 h, increase) was determined as 300 µM. Further, the “cell viability relative to vehicle control (rough binning)” value in the data set with JEG-3 cells [1] is listed as “increased cell viability”. The EC50 is 142 ± 12.6 µM in the data set on JEG-3 cells [2] (setting [7]); 141 ± 11.1 µM in the data set with JEG-3 cells [2] (Homo sapiens, JEG-3, 24 h, read-out: MMP EC50 ± SE, JEG-3 cells, 24 h); 10418 ± 10 µM in the data set with JEG-3 cells [3] (setting [8]). Also, the minimal effective concentration in the data set with JEG-3 cells [2] (Homo sapiens, JEG-3, 24 h) was determined as 100 µM; in the data set on JEG-3 cells [3] (Homo sapiens, JEG-3, 24 h), 100 µM. For the same molecule, the “MMP relative to vehicle control” value with JEG-3 cells [2] is on record as “reduced MMP”. For the same molecule, the “cellular proliferation relative to vehicle control (rough binning)” value in the data set with JEG-3 cells [3] is “reduced cellular proliferation”.
`NC(=O)C(F)(F)C(F)(F)C(F)(F)C(F)(F)C(F)(F)C(F)(F)C(F)(F)F` [Perfluorooctanamide]: the “cellular migration relative to vehicle control” value in the data set with JEG-3 cells [5] is reported as “significantly reduced”. The EC50 was 295 ± 66.1 µM with JEG-3 cells [2] (setting [7]); 114 µM with JEG-3 cells [3] (setting [6]); 114 ± 35.6 µM in the data set on JEG-3 cells [3] (Homo sapiens, JEG-3, 24 h, read-out: proliferation EC50 ± SE, JEG-3 cells, 24 h); 114 ± 35.6 µM in the data set on JEG-3 cells [3] (setting [8]).
With `O=C(O)C(F)(F)C(F)(F)C(F)(F)C(F)(F)C(F)(F)C(F)(F)C(F)(F)C(F)(F)C(F)(F)C(F)(F)F` [Perfluoroundecanoic acid], the “Viability ↓, lowest concentration at which the mean response value exceeded the mean control value ± 2*SD (rough binning)” value in the data set with JEG-3 cells [1] (JEG-3 cells, 24 h, decrease) is listed as 300 µM. Also, the EC50 in the data set on JEG-3 cells [1] (JEG-3 cells, 24 h exposure, read-out: Viability EC50 ± SD) is 266 ± 12.4 µM; in the data set on JEG-3 cells [2] (JEG-3 cells, 24 h exposure, four-parameter fit, estimates meeting inclusion criteria, read-out: MMP EC50 ± SD), 200 ± 4 µM; in the data set on JEG-3 cells [3] (JEG-3 cells, 24 h exposure, four-parameter fit, estimates meeting inclusion criteria, read-out: Proliferation EC50 ± SD), 230 ± 13.3 µM. For the same molecule, the “cell viability relative to vehicle control (rough binning)” value with JEG-3 cells [1] is reported as “reduced cell viability”. Moreover, the “MMP ↓, lowest concentration at which the mean response value exceeded the mean control value ± 2*SD (rough binning)” value in the data set with JEG-3 cells [2] (JEG-3 cells, 24 h, decrease) is reported as 100 µM. Also, the “MMP relative to vehicle control” value in the data set on JEG-3 cells [2] is reported as “reduced MMP”. In addition, the “Prolif ↓, lowest concentration at which the mean response value exceeded the mean control value ± 2*SD (rough binning)” value in the data set on JEG-3 cells [3] (JEG-3 cells, 24 h, decrease) stood at 100 µM. In addition, the “cellular proliferation relative to vehicle control (rough binning)” value in the data set with JEG-3 cells [3] was “reduced cellular proliferation”.
